Laboratory results reported in patent EP0340198B1, “Immunoassay for the detection of alpha-haloacetamides” (priority 1988, dated 1989).

Legend:
alachlor antibodies = assay: inhibition ELISA for alachlor (cross-reactivity studies); assay type: binding, rabbit; settings: for reaction (cross-reactivity) with the antibodies, in words: relative to alachlor
Method: Immunoassays. A known "checkerboard assay" was initially conducted with each serum sample after the first boost to detect the production of antibodies against alachlor. […] The next 7 rows received the subsequent dilutions of the screening antigen. The plate was covered with Parafilm and stored overnight at 4°C. The next morning, the unbound screening antigen was removed from the wells by washing three times with phosphate buffered saline solution (0.01 M phosphate buffer of pH 7.4, 0.15 M NaCl; PBS). The remaining active sites in the wells were blocked with PBS-8% non-fat dry milk solution, (NFDM, 0.3 mL) for 1 hr at 22°C. Serum, which had been stored at -20°C, was freshly thawed and serially diluted (one to two) from 1,000 to 64,000-fold using PBS-T (PBS containing 0.02% Tween 20). Starting with the most concentrated solution, 0.1 mL of the serum solution was pipetted into all 8 wells of column 1; the remaining columns received the subsequent dilutions of the serum solution. The plate was covered and incubated at 22°C for 1.5 hrs. Following triplicate washes of the wells with PBS-T, each of the wells received 0.1 mL of goat anti-rabbit gamma-globulin conjugated to horseradish peroxidase (GAR-HRP) freshly thawed and diluted 4,000 fold with PBS-1% NFDM. After a final wash cycle (4 times) with PBS-T, freshly prepared O-phenylene diamine (PDA) substrate solution (0.2 mL, 0.04 mg/mL PDA and 0.01% H₂O₂ in 0.05 M citric acid and 0.15 M sodium dibasic phosphate, pH 5.0) was dispensed into each of the wells and incubated in the dark at 22°C for 30-60 min. Sulfuric acid (4 N, 50 µL) was added to each of the wells to stop the reaction, and the final absorbances of the wells (490 nm) were recorded.
The inhibition ELISA required one additional step in the assay procedure described above. Equal volumes of the diluted serum and aqueous alachlor standard or unknown sample were mixed and preincubated at 22°C for 1 hr. This mixture (0.1 mL/well) was then analyzed in 6 replicate wells on the plate. The presence of free alachlor inhibited the binding of the antibody to the alachlor-BSA conjugate, resulting in an inhibition of the development of absorbance at 490 nm. The amount of free alachlor was indirectly proportional to the intensity of color developed. Levels of alachlor in unknown water samples were calculated based on the alachlor standards on the same plate. Alachlor standards (0, 0.2, 0.5, 1.0, 3.0, 5.0, and 8.0 ppb in deionized water) were stored at -20°C in 1-mL portions, and were freshly thawed for each assay.
Data Calculations. The lay-out of a typical 96-well microtiter plate is 8 rows of 12 columns in an inhibition ELISA assay for alachlor. The first 6 wells in the first column of wells were not coated with the screening antigen and served as the background wells. The first 6 wells in the remaining 7 columns of wells were reserved for the seven alachlor standards (0 to 8 ppb) listed above. The remaining wells in all 8 rows were used for the samples. The uncorrected absorbances of the wells determined by the Bio-tek reader were used in the following calculations. The median was calculated for the 6 replicate background wells and was then subtracted from the medians of the standards and samples. All the median values were divided by the median of the standard without alachlor (0 ppb) to generate percentages of absorbances. The percent absorbance of the alachlor standards was then plotted on the Y axis against the logarithm (base 10) of the actual concentrations of alachlor on the X axis. A hyperbolic curve was drawn through the standards, and the resulting standard curve was used to calculate the concentrations of alachlor in the unknown samples.
The calculations described above were usually carried out using a computer program.

[1] = test system: antibodies toward butachlor; assay: inhibition ELISA for butachlor; assay type: binding, rabbits; settings: for inhibition of the ELISA assay for butachlor: standard solutions at 10 and 50 ppb in DI water
Description: (§1) The generation of antibodies toward butachlor (2-chloro-2′,6′-diethyl-N-(butoxymethyl)acetanilide), amidochlor (2-chloro-2′,6′-diethyl-N-acetamidomethyl acetanilide), and metolachlor (2-chloro-2′-ethyl-6′-methyl-N-(2-methoxy-1-methylethyl)acetanilide) were accomplished following identical procedures as those described for alachlor. The individual 14C-labeled chloroacetanilide was covalently bound to HSA (human serum albumin) with AHT, and to sheep IgG with AMSA.
(§2) The hapten-IgG conjugates were used to immunize rabbits. The corresponding hapten-BSA conjugates were then utilized in checkerboard assays to determine the presence of desired antibodies in the antisera. An inhibition ELISA for butachlor was set up with antiserum, butachlor-HSA screening antigen, and butachlor. Similar assays were also set up for amidochlor and metolachlor.
(§3) The sensitivity of the inhibition ELISA for butachlor, amidochlor, and metolachlor was tested with respective standards prepared in DI water. Using the best antiserum, the butachlor ELISA produced an IC50 of 8 ppb.
(§4) The specificity of the ELISA for butachlor, amidochlor, and metolachlor were tested using standard solutions of alachlor, acetochlor, butachlor, amidochlor, metolachlor, and propachlor at concentrations of 10 and 50 ppb in DI water. At these concentrations, the ELISA assay for butachlor, amidochlor, and metolachlor was each inhibited only by the respective free hapten, and not by any of the other chloroacetanilides.

[2] = test system: antibodies toward metolachlor; assay: inhibition ELISA for metolachlor; assay type: binding, rabbits; settings: for inhibition of the ELISA assay for metolachlor: standard solutions at 10 and 50 ppb in DI water
Description: as §1, §2, §3, §4

[3] = test system: antibodies toward amidochlor; assay: inhibition ELISA for amidochlor; assay type: binding, rabbits; settings: for inhibition of the ELISA assay for amidochlor: standard solutions at 10 and 50 ppb in DI water
Description: as §1, §2, §3, §4

[4] = test system: antibodies isolated from the serum of the first bleed of the rabbit; assay: affinity column binding of 14C-labeled analytes from aqueous solution; settings: 14C-labeled analogs, test of non-specific binding
Method: Affinity Chromatography. The preparation of affinity columns using rabbit antisera was as follows: The rabbit IgG's were purified by passing 5 mL of the antiserum through a column containing 5 mL of the swelled protein A-agarose gel. By monitoring the absorbance at 280 nm in the column effluent, the non-bound proteins were removed by washing with PBS, and the IgG's were then eluted with acetic acid at pH 2.3 (0.58% acetic acid and 0.15 M NaCl). The fractions containing the IgG's were combined and neutralized; based on the UV absorbance at 280 nm (absorbance/1.4 = mg/mL protein), approximately 33 mg of IgG were isolated from 5 mL of serum, which was then lyophilized and stored at -20°C. The reusable protein A-agarose column was stored in PBS containing 0.02% sodium azide at 4°C.
The protein A-purified IgG was immobilized onto Affigel-10 affinity support. Affigel-10 (5 mL) was washed 3 times with isopropyl alcohol and 3 times with cold distilled water in a Buchner funnel. The gel was then added to a solution of IgG (3 mL in 0.1 M HEPES buffer, pH 7.5) at 4°C. Following 4 hrs of stirring, the gel was precipitated by gentle centrifugation and washed with HEPES buffer (3 x 3 mL). The remaining active sites on the gel were blocked by resuspending the gel in water (2 mL) and adding ethanolamine HCl (0.5 mL, 1M), and stirring the mixture at 22°C for 1 hr. The affinity column was useful in adsorbing alachlor and other analytes from aqueous solutions. After binding the alachlor, the column was washed with water (2 mL/min) to remove unbound material and alachlor was eluted with 75% aqueous methanol.
Using the antibodies isolated from the serum of the first bleed of the rabbit, an affinity column for alachlor was constructed to study its utility as an isolation and purification tool. The IgG's in the serum of the rabbit immunized with the alachlor-IgG conjugate were purified with a protein A-agarose column. The purified IgG was then immobilized onto the Affigel-10 support. Alachlor (¹⁴C-labeled) in aqueous solution was passed through the column with a flow rate of 2 mL/min; the column was washed with water and eluted with 75% aqueous methanol. The radioactivity in the wash and eluent were determined by liquid scintillation counting. […] The capacity of the column was less than 1 µg, and once this level was exceeded, alachlor no longer bound to the column. The recovery of applied radioactivity generally ranged from 80% to 100%. In a second experiment, alachlor (0.5 µg) was dissolved into increasing volumes of water ranging from 1 mL to 100 mL.
To eliminate the possibility of non-specific binding of alachlor to the affinity column, other ¹⁴C-labeled analogs were also studied. These included acetanilide herbicides butachlor, acetochlor, metolachlor, and propachlor and the previously mentioned alachlor metabolites mercapturate and its methyl ester. The affinity column bound butachlor and acetochlor, but not metolachlor, propachlor, or mercapturate.

[5] = IC50 of alachlor divided by IC50 of analog x 100, bleed not stated

| Compound | reaction (cross-reactivity) with the antibodies, in words (alachlor antibodies) | percent cross-reactivity (alachlor antibodies; [5]) | other results |
| --- | --- | --- | --- |
| CCc1cccc(CC)c1N(COC)C(=O)CS(=O)(=O)CCO | no cross-reactivity | – | – |
| CCc1cccc(CC)c1N(COC)C(=O)CSC | strong interaction | 188% | – |
| CCc1cccc(CC)c1NC(=O)CSC | no cross-reactivity | – | – |
| CCc1cccc(CC)c1N [2,6-diethylaniline] | no reaction | – | – |
| CCc1cccc(CC)c1N(COC)C(=O)C[S+]([O-])CC(NC(C)=O)C(=O)O (stereo not shown) [S=O derivative] | significantly reduced or eliminated | – | – |
| CCc1cccc(CC)c1N(CNC(C)=O)C(=O)CCl [amidochlor, 2-chloro-2′,6′-diethyl-N-acetamidomethyl acetanilide] | little to no interaction | – | inhibition of the ELISA assay for butachlor [1]: not; inhibition of the ELISA assay for metolachlor [2]: not; IC50 ([3]; amidochlor-HSA as the screening antigen, standards in DI water): 2 ppb; IC50 ([3]; butachlor-HSA substituted for amidochlor-HSA as the screening antigen): 0.2 ppb; inhibition of the ELISA assay for amidochlor [3]: inhibited |
| CCCCOCN(C(=O)CCl)c1c(CC)cccc1CC [butachlor, 2-chloro-2′,6′-diethyl-N-(butoxymethyl)acetanilide] | little to no interaction | – | binding by the affinity column [4]: bound; IC50 ([1]; best antiserum, butachlor-HSA screening antigen, standards in DI water): 8 ppb; inhibition of the ELISA assay for butachlor [1]: inhibited; inhibition of the ELISA assay for metolachlor [2]: not; inhibition of the ELISA assay for amidochlor [3]: not |
| CCc1cccc(CC)c1N(COC)C(=O)CSCC(NC(=O)CCC(N)C(=O)O)C(=O)NCC(=O)O (stereo not shown) [glutathione conjugate of alachlor] | – | 27.5% | – |
| CCc1cccc(CC)c1N(COC)C(=O)CSCC(NC(C)=O)C(=O)O (stereo not shown) [mercapturate analog] | – | – | percent cross-reactivity (alachlor antibodies; bleed four): 18%; percent cross-reactivity (alachlor antibodies; bleed seven): 65%; binding by the affinity column [4]: not |
| CCc1cccc(CC)c1N(COC)C(=O)CSCC(NC(C)=O)C(=O)OC (stereo not shown) [methyl ester of the mercapturate] | – | 89.7% | binding by the affinity column [4]: Binding was observed |
| CCc1cccc(C)c1N(C(=O)CCl)C(C)COC (stereo not shown) [metolachlor, 2-chloro-2′-ethyl-6′-methyl-N-(2-methoxy-1-methylethyl)acetanilide] | little to no interaction | – | binding by the affinity column [4]: not; inhibition of the ELISA assay for butachlor [1]: not; IC50 ([2]; best antiserum, standards in DI water): 8 ppb; inhibition of the ELISA assay for metolachlor [2]: inhibited; inhibition of the ELISA assay for amidochlor [3]: not |
| CCc1cccc(CC)c1N(COC)C(C)=O [norchloro-alachlor] | – | 22% | – |
| CCc1cccc(CC)c1NC(=O)CSCC(NC(C)=O)C(=O)O (stereo not shown) [secondary amide mercapturate] | significantly reduced or eliminated | – | – |
| CCc1cccc(CC)c1N(COC)C(=O)CS(C)(=O)=O [sulfone analog] | – | 9% | – |
| CCc1cccc(CC)c1N(COC)C(=O)CS(=O)(=O)O [sulfonic acid] | little reaction | less than 2.5% | – |
| CCc1cccc(CC)c1N(COC)C(=O)C[S+](C)[O-] (stereo not shown) [sulfoxide analog] | – | 15% | – |
| CCc1cccc(CC)c1N(COC)C(=O)CSCC(=O)O [thioacetic acid conjugate of alachlor] | – | 57.0% | – |
| CCc1cccc(CC)c1NC(=O)CCl [α-chloro-2′,6′-diethylacetanilide] | no reaction | – | – |
| oxanilic acid | little reaction | less than 2.5% | – |
